In US20240247030A1, “TARGETED DELIVERY OF TERTIARY AMINE-CONTAINING DRUG SUBSTANCES” (Seagen Inc., priority 2014, published 2024):
≈ marks a conversion by molar mass, not a printed value. Read-outs that look alike come from different tables or passages of the source. *1 amine or outer side, *2 acyl side, *3 side chain or, on linkers, in order; H or OH if unused. Where a SMILES comes first, the peptide text is derived from it. [ ]: non-standard residue; d: D form. The star is where a group is joined. Dolaproine = CO[C@@H]([C@@H]1CCCN1)[C@@H](C)C(=O)O; Hexanoyl(6-maleimido) = O=C1C=CC(=O)N1CCCCCC(=O)*; Dil = CC[C@H](C)[C@H](NC)[C@@H](CC(=O)O)OC; PABC = O=C(OCc1ccc(N[*:1])cc1)[*:2]; Cit = NC(=O)NCCC[C@H](N)C(=O)O; NMeV = CN[C@H](C(=O)O)C(C)C

How the values were obtained:
DEL ALCL cells = type: cell-based
DEL/BVR MDR+ ALCL cells = type: cell-based
Procedure: (§1) In vitro assays. Cells cultured in log-phase growth were seeded for 24 h in 96-well plates containing 150 μL RPMI 1640 supplemented with 20% FBS. Serial dilutions of antibody-drug conjugates in cell culture media were prepared at 4× working concentrations; 50 μL of each dilution was added to the 96-well plates. Following addition of ADC, cells were incubated with test articles for 4 d at 37° C. After 96 h, growth inhibition was assessed by CellTiter-Glo™ (Promega, Madison, W1) and luminescence was measured on a plate reader. The IC50 value, determined in triplicate, is defined here as the concentration that results in a 50% reduction in cell growth relative to untreated controls.

[1] = test system: Hep3B hepatocellular carcinoma cells; test: In vitro cytotoxicity (CellTiter-Glo, 96 h); type: cell-based; details: Table 10; cAC10 conjugate, 8 drug units/Ab; antigen-negative cells
Procedure: as §1

Karpas299 ALCL cells = test: In vitro cytotoxicity (CellTiter-Glo, 96 h); type: cell-based; details: for IC50: Homo sapiens, KARPAS-299, 96 h, read-out: IC50, Karpas299, ALCL, Table 6, free drug, 96 hours
Procedure: as §1

L428 MDR+ HL cells = test: In vitro cytotoxicity (CellTiter-Glo, 96 h); type: cell-based; details: for IC50: Homo sapiens, L-428, 96 h, read-out: IC50, L428, MDR+ HL, Table 6, free drug, 96 hours
[2] = test system: L540cy Hodgkin lymphoma cells; test: In vitro cytotoxicity (CellTiter-Glo, 96 h); type: cell-based; details: for IC50: L540cy, read-out: IC50, L540cy, HL, Table 6, free drug, 96 hours
panel of cell lines = test: In vitro cytotoxicity, statements across a panel of cell lines; type: cell-based
Procedure: as §1

[3] = Pharmacokinetics of radiolabeled antibody or ADC; type: in vivo, rat; details: 1 mg/kg i.v., radiolabeled non-targeting ADC
Procedure: PK test articles were radiolabeled using the following procedure.
Each test article was dosed once in replicate animals.

HL60 AML cells = test: cells; type: cell-based; details: for IC50: Homo sapiens, HL-60, 96 h, read-out: IC50, HL60, AML, Table 6, free drug, 96 hours
Procedure: as §1

HL60/RV MDR+ AML cells = test: In vitro cytotoxicity (CellTiter-Glo, 96 h); type: cell-based; details: for IC50: Homo sapiens, HL-60, 96 h, read-out: IC50, HL60/RV, MDR+ AML, Table 6, free drug, 96 hours
Procedure: as §1

[4] = Table 7, cAC10 conjugate of the Drug-Linker, 8 D+/Ab, 96 h
[5] = Table 11, cAC10 conjugate, 8-drugs/mAb
[6] = Table 10, cAC10 conjugate, 8 drug units/Ab
[7] = Table 15, cOKT-9 conjugate, 8-drugs/Ab

CC[C@H](C)[C@H](NC(=O)[C@H]1CCCC[N+]1(C)Cc1ccc(O[C@@H]2O[C@H](C(=O)O)[C@@H](O)[C@H](O)[C@H]2O)c(NC(=O)CCNC(=O)[C@H](CN)N2C(=O)C=CC2=O)c1)C(=O)N(C)[C@H](C[C@@H](OC(C)=O)c1nc(C(=O)N[C@@H](Cc2ccccc2)C[C@H](C)C(=O)O)cs1)C(C)C (stereo partly shown) [Compound 104]
IC50, DEL, ALCL (DEL ALCL cells; [4]): 2 ng/mL
IC50, DEL, ALCL (DEL ALCL cells; [5]): 2 ng/mL
IC50, DEL/BVR, MDR+ ALCL (DEL/BVR MDR+ ALCL cells; [4]): 3 ng/mL
IC50, DEL/BVR, MDR+ ALCL (DEL/BVR MDR+ ALCL cells; [6]): 4 ng/mL
IC50, Hep3B, CD30- HCC [1]: >1000 ng/mL
IC50, Karpas299, ALCL (Karpas299 ALCL cells; Table 7, cAC10 (anti-CD30) conjugate of the Drug-Linker, 8 D+/Ab, 96 h): 0.6 ng/mL
IC50, L428, MDR+ HL (L428 MDR+ HL cells; [4]): 0.5 ng/mL
IC50, L428, MDR+ HL (L428 MDR+ HL cells; [6]): 0.4 ng/mL
IC50, L540cy, HL [2, 4]: 4 ng/mL

CC[C@H](C)[C@H](NC(=O)[C@H]1CCCCN1C(=O)CCCCCN1C(=O)C=CC1=O)C(=O)N(C)[C@H](C[C@@H](OC)c1nc(C(=O)N[C@@H](Cc2ccccc2)C[C@H](C)C(=O)O)cs1)C(C)C [Compound 172, (2S,4R)-4-(2-((1R,3R)-3-((2S,3S)-2-((R)-1-(6-(2,5-dioxo-2,5-dihydro-1H-pyrrol-1-yl)hexanoyl)piperidine-2-carboxamido)-N,3-dimethylpentanamido)-1-methoxy-4-methylpentyl)thiazole-4-carboxamido)-2-methyl-5-phenylpentanoic acid]
cytotoxic activity in words, conjugates on CD30+ lymphoma cell lines (panel of cell lines; conjugate of the named Drug Linker or named ADC): inactive
IC50, DEL, ALCL (DEL ALCL cells; [5]): >1000 ng/mL
IC50, Karpas299, ALCL (Karpas299 ALCL cells; Table 11, cAC10 conjugate of the Drug-Linker, 8-drugs/mAb): >1000 ng/mL
IC50, L540cy, HL [2, 5]: >1000 ng/mL

CCCO[C@H](C[C@H](C(C)C)N(C)C(=O)[C@@H](NC(=O)[C@H]1CCCC[N+]1(C)Cc1ccc(O[C@@H]2O[C@H](C(=O)O)[C@@H](O)[C@H](O)[C@H]2O)c(NC(=O)CCNC(=O)[C@H](CN)N2C(=O)C=CC2=O)c1)[C@@H](C)CC)c1nc(C(=O)N[C@@H](Cc2ccccc2)C[C@H](C)C(=O)O)cs1 (stereo partly drawn) [Compound 80, (2R)-1-(3-(3-((S)-3-amino-2-(2,5-dioxo-2,5-dihydro-1H-pyrrol-1-yl)propanamido)propanamido)-4-(((2S,3R,4S,5S,6S)-6-carboxy-3,4,5-trihydroxytetrahydro-2H-pyran-2-yl)oxy)benzyl)-2-(((2S,3S)-1-(((1R,3R)-1-(4-(((2R,4S)-4-carboxy-1-phenylpentan-2-yl)carbamoyl)thiazol-2-yl)-4-methyl-1-propoxypentan-3-yl)(methyl)amino)-3-methyl-1-oxopentan-2-yl)carbamoyl)-1-methylpiperidin-1-ium]
clearance / exposure profile compared with unconjugated antibody (FIG. 12-14) [3]: cleared from circulation much more rapidly than the unmodified antibody

CC[C@H](C)[C@H](NC(=O)[C@H]1CCCC[N+]1(C)Cc1ccc(NC(=O)[C@H](C)NC(=O)[C@@H](NC(=O)[C@H](CN)N2C(=O)C=CC2=O)C(C)C)cc1)C(=O)N(C)[C@H](C[C@@H](OC(C)=O)c1nc(C(=O)N[C@@H](Cc2ccccc2)C[C@H](C)C(=O)O)cs1)C(C)C (stereo partly drawn) [Compound 32, (2R)-2-(((2S,3S)-1-(((1R,3R)-1-acetoxy-1-(4-(((2R,4S)-4-carboxy-1-phenylpentan-2-yl)carbamoyl)thiazol-2-yl)-4-methylpentan-3-yl)(methyl)amino)-3-methyl-1-oxopentan-2-yl)carbamoyl)-1-(4-((S)-2-((S)-2-((S)-3-amino-2-(2,5-dioxo-2,5-dihydro-1H-pyrrol-1-yl)propanamido)-3-methylbutanamido)propanamido)benzyl)-1-methylpiperidin-1-ium]
IC50, DEL/BVR, MDR+ ALCL (DEL/BVR MDR+ ALCL cells; [6]): 4 ng/mL
IC50, Hep3B, CD30- HCC [1]: >1000 ng/mL
IC50, L428, MDR+ HL (L428 MDR+ HL cells; [6]): 1 ng/mL

CC[C@H](C)[C@@H]([C@@H](CC(=O)N1CCC[C@H]1[C@H](OC)[C@@H](C)C(=O)N[C@H](C)[C@@H](O)c1ccccc1)OC)N(C)C(=O)[C@@H](NC(=O)[C@H](C(C)C)[N+](C)(C)Cc1ccc(O[C@@H]2O[C@H](C(=O)O)[C@@H](O)[C@H](O)[C@H]2O)c(NC(=O)CCNC(=O)[C@H](CN)N2C(=O)C=CC2=O)c1)C(C)C [Compound 8]
clearance / exposure profile compared with unconjugated antibody (FIG. 12-14) [3]: PK properties identical to that of unmodified antibody through 7 days

CC[C@H](C)[C@H](NC(=O)[C@H]1CCCC[N+]1(C)Cc1ccc(NC(=O)[C@H](CCC(=O)O)NC(=O)[C@@H](NC(=O)[C@H](CN)N2C(=O)C=CC2=O)C(C)C)cc1)C(=O)N(C)[C@H](C[C@@H](OC(C)=O)c1nc(C(=O)N[C@@H](Cc2ccccc2)C[C@H](C)C(=O)O)cs1)C(C)C (stereo partly drawn) [Compound 113, (2R)-2-(((2S,3S)-1-(((1R,3R)-1-acetoxy-1-(4-(((2R,4S)-4-carboxy-1-phenylpentan-2-yl)carbamoyl)thiazol-2-yl)-4-methylpentan-3-yl)(methyl)amino)-3-methyl-1-oxopentan-2-yl)carbamoyl)-1-(4-((S)-2-((S)-2-((S)-3-amino-2-(2,5-dioxo-2,5-dihydro-1H-pyrrol-1-yl)propanamido)-3-methylbutanamido)-4-carboxybutanamido)benzyl)-1-methylpiperidin-1-ium]
IC50, DEL/BVR, MDR+ ALCL (DEL/BVR MDR+ ALCL cells; [6]): 2 ng/mL
IC50, Hep3B, CD30- HCC [1]: >1000 ng/mL
IC50, L428, MDR+ HL (L428 MDR+ HL cells; [6]): 0.3 ng/mL

CC[C@H](C)[C@H](NC(=O)[C@H]1CCCCN1C)C(=O)N(C)[C@H](C[C@@H](OC(=O)CC(C)(C)C)c1nc(C(=O)N[C@@H](Cc2ccccc2)C[C@H](C)C(=O)O)cs1)C(C)C [Compound 159, (2S,4R)-4-(2-((1R,3R)-3-((2S,3S)—N,3-dimethyl-2-((R)-1-methylpiperidine-2-carboxamido)pentanamido)-1-((3,3-dimethylbutanoyl)oxy)-4-methylpentyl)thiazole-4-carboxamido)-2-methyl-5-phenylpentanoic acid]
potency loss relative to tubulysin M (panel of cell lines; free drug, across the cell lines of Table 6): 5-47 fold

CC[C@H](C)[C@@H]([C@@H](CC(=O)N1CCC[C@H]1[C@H](OC)[C@@H](C)C(=O)N[C@@H](Cc1ccccc1)C(=O)O)OC)N(C)C(=O)[C@@H](NC(=O)[C@H](C(C)C)N(C)C(=O)OCc1ccc(NC(=O)[C@H](CCCNC(N)=O)NC(=O)[C@@H](NC(=O)CCCCCN2C(=O)C=CC2=O)C(C)C)cc1)C(C)C [Compound 193, MC-Val-Cit-PABC-MMAF, reference compound] ({Hexanoyl(6-maleimido)}-V[Cit][PABC][NMeV]V[Dil][Dolaproine]F-OH)
IC50, HL60, AML (HL60 AML cells; [7]): 33 ng/mL (≈ 0.0248 µM)
IC50, HL60/RV, MDR+ AML (HL60/RV MDR+ AML cells; [7]): 15 ng/mL (≈ 0.0113 µM)

CCCC(=O)O[C@H](C[C@H](C(C)C)N(C)C(=O)[C@@H](NC(=O)[C@H]1CCCCN1C)[C@@H](C)CC)c1nc(C(=O)N[C@@H](Cc2ccccc2)C[C@H](C)C(=O)O)cs1 [Compound 156, (2S,4R)-4-(2-((1R,3R)-1-(butyryloxy)-3-((2S,3S)—N,3-dimethyl-2-((R)-1-methylpiperidine-2-carboxamido)pentanamido)-4-methylpentyl)thiazole-4-carboxamido)-2-methyl-5-phenylpentanoic acid]
IC50 (HL60 AML cells): 0.1 nM
IC50 (HL60/RV MDR+ AML cells): 6 nM
IC50 (Karpas299 ALCL cells): 0.02 nM
IC50 (L428 MDR+ HL cells): 0.12 nM
IC50 ([2]; 96 h): 0.1 nM

CC[C@H](C)[C@H](NC(=O)[C@H]1CCCCN1C)C(=O)N(C)[C@H](C[C@@H](OC(=O)C(C)C)c1nc(C(=O)N[C@@H](Cc2ccccc2)C[C@H](C)C(=O)O)cs1)C(C)C [Compound 157, (2S,4R)-4-(2-((1R,3R)-3-((2S,3S)—N,3-dimethyl-2-((R)-1-methylpiperidine-2-carboxamido)pentanamido)-1-(isobutyryloxy)-4-methylpentyl)thiazole-4-carboxamido)-2-methyl-S-phenylpentanoic acid]
IC50 (HL60 AML cells): 0.08 nM
IC50 (HL60/RV MDR+ AML cells): 3 nM
IC50 (Karpas299 ALCL cells): 0.011 nM
IC50 (L428 MDR+ HL cells): 0.05 nM
IC50 ([2]; 96 h): 0.04 nM
